Like-named read-outs stand apart in the source and are kept apart here.
How the values were obtained:
[1] = DE-A1-2,515,075; particularly when given dissolved, e.g. intravenously; cited from earlier work
[2] = Stability of the active substance as a function of pH (% intact substance)

Row | SMILES | antibacterial activity [1] | stability in acidic media / gastric juices ([2]; gastric juices (pH 1.0 to 2.0)) | remaining at 0.5 h ([2]; pH 1) | remaining at 0.5 h ([2]; pH 6) | remaining at 0.5 h ([2]; pH 6.5) | remaining at 0.5 h ([2]; pH 7) | remaining at 0.5 h ([2]; pH 7.5) | remaining at 0.5 h ([2]; pH 8) | chemical stability around pH 5.5 ([2]; pH around 5.5) | chemical stability around pH 5.5 | remaining at 0.5 h ([2]; pH 1.3) | remaining at 1 h ([2]; pH 1.3) | remaining at 0.5 h ([2]; pH 4.5) | remaining at 1 h ([2]; pH 4.5) | remaining at 0.5 h ([2]; pH 5.5) | remaining at 1 h ([2]; pH 5.5)
1 | CC[C@H]1OC(=O)[C@H](C)[C@@H](O[C@H]2C[C@@](C)(OC)[C@@H](O)[C@H](C)O2)[C@H](C)[C@@H](O[C@@H]2O[C@H](C)C[C@H](N(C)C)[C@H]2O)[C@](C)(O)C[C@@H](C)[C@@H]2NC(COCCOC)O[C@H]([C@H]2C)[C@]1(C)O (stereo partly drawn) [AS-E 136, 9-deoxo-11-deoxy-9,11-[imino[2-(2-methoxyethoxy)-ethylidene]oxy]-(9S)-erythromycin] | particularly good antibacterial activity | usually destroyed in a short time | 10% | 20% | 20% | 50% | 80% | 95% | retains its susceptibility to hydrolysis unchanged | – | – | – | – | – | – | –
2 | CC[C@H]1OC(=O)[C@H](C)[C@@H](O[C@H]2C[C@@](C)(OC)[C@@H](O)[C@H](C)O2)[C@H](C)[C@@H](O[C@@H]2O[C@H](C)C[C@H](N(C)C)[C@H]2O)[C@](C)(O)C[C@@H](C)C(=O)[C@H](C)[C@@H](O)[C@]1(C)O [erythromycin, reference compound] | – | – | – | – | – | – | – | – | – | chemically stable long enough to be resorbed | 30% | 10% | 55% | 50% | 100% | 85%

From patent US4755385A, “Oral pharmaceutical preparations containing 9-deoxo-11-deoxy-9,11-[imino[2-(2-methoxyethoxy)-ethylidene]-oxy]-(9S)-e rythromycin” (priority 1985, dated 1988)
